Results from US10131644B2, “Aryl sultam derivatives as RORc modulators” (Genentech, Inc., priority 2014, dated 2018).

Target: T1, RORc (Homo sapiens, UniProt P51449)
T1 sequence (P51449 269-508 limits assumed): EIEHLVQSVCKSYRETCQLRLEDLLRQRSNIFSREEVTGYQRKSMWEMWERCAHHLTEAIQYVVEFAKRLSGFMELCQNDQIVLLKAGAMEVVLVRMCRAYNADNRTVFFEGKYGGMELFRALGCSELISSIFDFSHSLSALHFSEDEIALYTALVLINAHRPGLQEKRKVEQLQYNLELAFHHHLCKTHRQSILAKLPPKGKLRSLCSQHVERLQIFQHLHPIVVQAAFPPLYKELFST
Assay: In vitro RORc ligand binding assay (25-[3H]hydroxycholesterol displacement)
Conditions: IC50, IC50 values for RORc; unit inferred

Row | IC50 [nM] | SMILES
1 | 112 | C[C@H]1CC[C@H](c2ccccc2)S(=O)(=O)N1Cc1ccc(C2(NCC(=O)O)CCOCC2)cc1F [Compound 164, 2-[[4-[3-fluoro-4-[[(3S,6R)-3-methyl-1,1-dioxo-6-phenyl-thiazinan-2-yl]methyl]phenyl]tetrahydropyran-4-yl]amino]acetic acid]
2 | 1200 | C[C@H]1CC[C@@H](c2ccccc2)S(=O)(=O)N1Cc1ccc(C2(O)CCS(=O)(=O)CC2)cc1F [Compound 41, (3S,6S)-2-(2-fluoro-4-(4-hydroxy-1,1-dioxidotetrahydro-2H-thiopyran-4-yl)benzyl)-3-methyl-6-phenyl-1,2-thiazinane 1,1-dioxide]
3 | 32.7 | CNC(=O)CCC1(c2cc(F)c(CN3[C@@H](C)CC[C@H](c4ccccc4)S3(=O)=O)cc2F)CC1 [Compound 146, 3-[1-[2,5-difluoro-4-[[(3S,6R)-3-methyl-1,1-dioxo-6-phenyl-thiazinan-2-yl]methyl]phenyl]cyclopropyl]-N-methyl-propanamide]
4 | 149 | C[C@H]1CC[C@H](c2ccccc2)S(=O)(=O)N1Cc1ccc(C2(C(=O)NCC(C)(C)O)CCOCC2)cc1F [Compound 62, 4-[3-fluoro-4-[[(3S,6R)-3-methyl-1,1-dioxo-6-phenyl-thiazinan-2-yl]methyl]phenyl]-N-(2-hydroxy-2-methyl-propyl)tetrahydropyran-4-carboxamide]
5 | 16.6 | C[C@H]1CC[C@H](c2ccccc2)S(=O)(=O)N1Cc1ccc(C2([C@H](O)CCO)CCOCC2)cc1F [Compound 118, (1R)-1-[4-[3-fluoro-4-[[(3S,6R)-3-methyl-1,1-dioxo-6-phenyl-thiazinan-2-yl]methyl]phenyl]tetrahydropyran-4-yl]propane-1,3-diol]
6 | 11.6 | C[C@H]1CC[C@H](c2ccccc2)S(=O)(=O)N1Cc1cc(F)c(C2(OCC(O)CO)CCOCC2)cc1F (stereo in doubt) [Compound 171, (2R)-3-[4-[2,5-difluoro-4-[[(3S,6R)-3-methyl-1,1-dioxo-6-phenyl-thiazinan-2-yl]methyl]phenyl]tetrahydropyran-4-yl]oxypropane-1,2-diol]
7 | 1800 | CC(=O)N[C@H]1CC[C@](C#N)(c2ccc(CN3[C@@H](C)CC[C@@H](c4ccccc4)S3(=O)=O)c(F)c2)CC1 [Compound 33, N-{4-Cyano-4-[3-fluoro-4-((3S,6S)-3-methyl-1,1-dioxo-6-phenyl-[1,2]thiazinan-2-ylmethyl)-phenyl]-cyclohexyl}-acetamide]
8 | 376 | C[C@H]1CC[C@H](c2ccccc2)S(=O)(=O)N1Cc1ccc(C2(CC(N)=O)CCOCC2)cc1F [Compound 89, 2-[4-[3-fluoro-4-[[(3S,6R)-3-methyl-1,1-dioxo-6-phenyl-thiazinan-2-yl]methyl]phenyl]tetrahydropyran-4-yl]acetamide]
9 | 15.2 | C[C@H]1CC[C@H](c2ccccc2)S(=O)(=O)N1Cc1cc(F)c(C2(OCC(=O)NCCO)CCOCC2)cc1F [Compound 156, 2-[4-[2,5-difluoro-4-[[(3S,6R)-3-methyl-1,1-dioxo-6-phenyl-thiazinan-2-yl]methyl]phenyl]tetrahydropyran-4-yl]oxy-N-(2-hydroxyethyl)acetamide]
10 | 845 | C[C@H]1CC[C@H](c2ccccc2)S(=O)(=O)N1Cc1ccc(C2(C(=O)NCCN(C)C)CCOCC2)cc1F [Compound 53, N-[2-(dimethylamino)ethyl]-4-[3-fluoro-4-[[(3S,6R)-3-methyl-1,1-dioxo-6-phenyl-thiazinan-2-yl]methyl]phenyl]tetrahydropyran-4-carboxamide]
11 | 13.7 | C[C@H]1CC[C@H](c2ccccc2)S(=O)(=O)N1Cc1ccc(C2(CCO)CCOCC2)cc1F [Compound 78, 2-[4-[3-fluoro-4-[[(3S,6R)-3-methyl-1,1-dioxo-6-phenyl-thiazinan-2-yl]methyl]phenyl]tetrahydropyran-4-yl]ethanol]
12 | 80.2 | C[C@H]1CC[C@H](c2ccccc2)S(=O)(=O)N1Cc1ccc(C2(C(=O)NCC#N)CCOCC2)cc1F [Compound 57, N-(cyanomethyl)-4-[3-fluoro-4-[[(3S,6R)-3-methyl-1,1-dioxo-6-phenyl-thiazinan-2-yl]methyl]phenyl]tetrahydropyran-4-carboxamide]
13 | 147 | CCNC(=O)C1(c2ccc(CN3[C@@H](C)CC[C@H](c4ccccc4)S3(=O)=O)c(F)c2)CCOCC1 [Compound 51, N-ethyl-4-[3-fluoro-4-[[(3S,6R)-3-methyl-1,1-dioxo-6-phenyl-thiazinan-2-yl]methyl]phenyl]tetrahydropyran-4-carboxamide]
14 | 52.2 | C[C@H]1CC[C@H](c2ccccc2)S(=O)(=O)N1Cc1ccc(C2(C#N)CC(F)(F)C2)cc1F [Compound 165, 3,3-difluoro-1-[3-fluoro-4-[[(3S,6R)-3-methyl-1,1-dioxo-6-phenyl-thiazinan-2-yl]methyl]phenyl]cyclobutanecarbonitrile]
15 | 2300 | CC(=O)N[C@H]1CC[C@](C#N)(c2ccc(CN3[C@@H](C)CC[C@H](c4ccccc4)S3(=O)=O)c(F)c2)CC1 [Compound 34, N-{4-Cyano-4-[3-fluoro-4-((3S,6R)-3-methyl-1,1-dioxo-6-phenyl-[1,2]thiazinan-2-ylmethyl)-phenyl]-cyclohexyl}-acetamide]
16 | 66.4 | C[C@H]1CC[C@H](c2ccccc2)S(=O)(=O)N1Cc1ccc(C2(OCCO)CCOCC2)cc1F [Compound 99, 2-[4-[3-fluoro-4-[[(3S,6R)-3-methyl-1,1-dioxo-6-phenyl-thiazinan-2-yl]methyl]phenyl]tetrahydropyran-4-yl]oxyethanol]
17 | 53.2 | COC(=O)NCC1(c2ccc(CN3[C@@H](C)CC[C@H](c4ccccc4)S3(=O)=O)c(F)c2)CCOCC1 [Compound 73, methyl N-[[4-[3-fluoro-4-[[(3S,6R)-3-methyl-1,1-dioxo-6-phenyl-thiazinan-2-yl]methyl]phenyl]tetrahydropyran-4-yl]methyl]carbamate]
18 | 46 | C[C@H]1CC[C@H](c2ccccc2)S(=O)(=O)N1Cc1ccc(C2(COCCO)CCOCC2)cc1F [Compound 83, 2-[[4-[3-fluoro-4-[[(3S,6R)-3-methyl-1,1-dioxo-6-phenyl-thiazinan-2-yl]methyl]phenyl]tetrahydropyran-4-yl]methoxy]ethanol]
19 | 403 | C[C@H]1CC[C@H](c2ccccc2)S(=O)(=O)N1Cc1ccc(C2(C(=O)NCC(=O)N(C)C)CCOCC2)cc1F [Compound 56, N-[2-(dimethylamino)-2-oxo-ethyl]-4-[3-fluoro-4-[[(3S,6R)-3-methyl-1,1-dioxo-6-phenyl-thiazinan-2-yl]methyl]phenyl]tetrahydropyran-4-carboxamide]
20 | 53.6 | CCOC(=O)/C=C/C1(c2ccc(CN3[C@@H](C)CC[C@H](c4ccccc4)S3(=O)=O)c(F)c2)CC1 [Compound 114, ethyl (E)-3-[1-[3-fluoro-4-[[(3S,6R)-3-methyl-1,1-dioxo-6-phenyl-thiazinan-2-yl]methyl]phenyl]cyclopropyl]prop-2-enoate]
21 | 639 | C[C@H]1CC[C@H](c2ccccc2)S(=O)(=O)N1Cc1ccc(C2(CN)CCOCC2)cc1F [Compound 75, [4-[3-fluoro-4-[[(3S,6R)-3-methyl-1,1-dioxo-6-phenyl-thiazinan-2-yl]methyl]phenyl]tetrahydropyran-4-yl]methanamine]
